Assay results reported in ChEMBL document CHEMBL1201862, “PubChem BioAssay data set” (2004).
Calls of active or inactive are those of the source.

Tests used:
[1] = target: T1, Ubiquitin-conjugating enzyme E2 N (Homo sapiens, UniProt P61088); assay type: functional
T1 sequence (P61088 whole entry): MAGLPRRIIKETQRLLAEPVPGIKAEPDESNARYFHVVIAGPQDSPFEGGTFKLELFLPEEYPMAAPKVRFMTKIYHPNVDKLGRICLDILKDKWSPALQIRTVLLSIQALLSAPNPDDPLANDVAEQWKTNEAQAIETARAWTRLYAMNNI

[2] = target: T1, Ubiquitin-conjugating enzyme E2 N; assay type: functional; remark: listed apart in the source
Insulin-degrading enzyme [3] = target: T2, Insulin-degrading enzyme (Homo sapiens, UniProt P14735); experiment: recombinant IDE activation, cell-free – biochemical, fluorescence polarization, counter-screen for IDE activator project, dose response (AID 588681)
T2 sequence (P14735 whole entry): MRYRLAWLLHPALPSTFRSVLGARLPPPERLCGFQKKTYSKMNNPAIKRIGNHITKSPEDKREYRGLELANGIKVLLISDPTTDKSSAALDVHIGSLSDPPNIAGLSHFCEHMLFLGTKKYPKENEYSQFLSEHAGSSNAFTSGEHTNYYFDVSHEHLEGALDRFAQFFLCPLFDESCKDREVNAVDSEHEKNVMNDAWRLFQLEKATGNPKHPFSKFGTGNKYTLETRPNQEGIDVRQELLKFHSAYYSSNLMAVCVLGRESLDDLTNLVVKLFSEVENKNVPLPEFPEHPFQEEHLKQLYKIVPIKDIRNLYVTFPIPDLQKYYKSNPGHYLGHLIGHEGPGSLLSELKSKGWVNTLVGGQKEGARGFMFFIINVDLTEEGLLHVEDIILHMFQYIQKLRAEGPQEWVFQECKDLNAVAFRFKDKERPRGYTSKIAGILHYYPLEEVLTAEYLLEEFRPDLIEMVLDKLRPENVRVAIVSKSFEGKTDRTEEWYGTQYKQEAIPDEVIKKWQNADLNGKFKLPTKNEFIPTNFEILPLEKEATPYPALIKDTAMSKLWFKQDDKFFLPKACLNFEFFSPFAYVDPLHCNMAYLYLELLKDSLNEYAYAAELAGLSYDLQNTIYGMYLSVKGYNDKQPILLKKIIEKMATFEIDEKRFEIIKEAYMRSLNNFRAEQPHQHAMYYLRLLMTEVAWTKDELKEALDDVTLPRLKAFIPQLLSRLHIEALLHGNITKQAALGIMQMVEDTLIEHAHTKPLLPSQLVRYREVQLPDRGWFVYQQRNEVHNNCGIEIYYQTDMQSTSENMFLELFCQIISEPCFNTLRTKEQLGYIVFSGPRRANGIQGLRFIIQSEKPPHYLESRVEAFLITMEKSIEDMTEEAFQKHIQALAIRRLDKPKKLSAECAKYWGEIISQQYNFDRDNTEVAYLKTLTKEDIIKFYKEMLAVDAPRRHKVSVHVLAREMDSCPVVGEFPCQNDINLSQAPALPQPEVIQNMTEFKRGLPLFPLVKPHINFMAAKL

[4] = target: Intestinal-type alkaline phosphatase (Mus musculus, UniProt P24822); experiment: PubChem AID 488785; assay type: functional
Chain of Intestinal-type alkaline phosphatase (Mus musculus, UniProt P24822) (P24822 whole entry): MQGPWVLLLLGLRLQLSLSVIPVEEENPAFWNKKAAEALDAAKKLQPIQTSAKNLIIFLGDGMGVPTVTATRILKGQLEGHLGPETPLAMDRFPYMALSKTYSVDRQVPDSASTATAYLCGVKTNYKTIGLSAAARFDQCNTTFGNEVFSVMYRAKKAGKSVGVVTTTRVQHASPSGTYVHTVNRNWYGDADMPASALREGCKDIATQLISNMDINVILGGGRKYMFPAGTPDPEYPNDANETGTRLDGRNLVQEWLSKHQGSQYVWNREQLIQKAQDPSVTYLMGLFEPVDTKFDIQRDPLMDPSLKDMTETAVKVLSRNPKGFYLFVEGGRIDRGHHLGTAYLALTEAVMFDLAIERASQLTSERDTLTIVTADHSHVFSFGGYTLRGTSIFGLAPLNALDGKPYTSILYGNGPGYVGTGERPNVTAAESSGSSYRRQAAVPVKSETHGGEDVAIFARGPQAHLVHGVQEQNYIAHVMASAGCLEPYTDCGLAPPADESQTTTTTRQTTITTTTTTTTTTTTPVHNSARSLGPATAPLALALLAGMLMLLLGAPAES

[5] = target: Delta-type opioid receptor (Homo sapiens, UniProt P41143); experiment: Counterscreen for agonists of heterodimerization of the mu 1 (OPRM1) and delta 1 (OPRD1) opioid receptors: Luminescence-based cell-based high throughput dose response assay to identify agonists of OPRD1 homodimerization. [Related pubchem assays (depositor defined):AID504326, AID504355, AID504692, AID504904, AID504905]; assay type: functional
Chain of Delta-type opioid receptor (P41143 whole entry): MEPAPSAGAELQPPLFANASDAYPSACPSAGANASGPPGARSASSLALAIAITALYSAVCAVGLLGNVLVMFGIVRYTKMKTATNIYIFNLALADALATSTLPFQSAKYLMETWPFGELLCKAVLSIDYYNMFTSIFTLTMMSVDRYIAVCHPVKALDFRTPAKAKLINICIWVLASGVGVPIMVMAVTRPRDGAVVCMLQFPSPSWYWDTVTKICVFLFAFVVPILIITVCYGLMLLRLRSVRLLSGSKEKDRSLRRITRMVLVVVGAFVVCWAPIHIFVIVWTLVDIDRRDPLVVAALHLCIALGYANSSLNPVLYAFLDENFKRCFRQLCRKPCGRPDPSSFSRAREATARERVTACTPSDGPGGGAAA

[6] = target: Heat shock protein HSP 90-alpha (Homo sapiens, UniProt P07900); assay type: functional, organism-based
Mu-type opioid receptor = Mu-type opioid receptor (Homo sapiens, UniProt P35372); experiment: Counterscreen for agonists of heterodimerization of the mu 1 (OPRM1) and delta 1 (OPRD1) opioid receptors: Luminescence-based cell-based high throughput dose response assay to identify agonists of OPRM1 homodimerization.; assay type: functional;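 also: U2OS cells expressing OPRM1 and beta-arrestin as split beta-galactosidase partners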
Chain of Mu-type opioid receptor (P35372 whole entry): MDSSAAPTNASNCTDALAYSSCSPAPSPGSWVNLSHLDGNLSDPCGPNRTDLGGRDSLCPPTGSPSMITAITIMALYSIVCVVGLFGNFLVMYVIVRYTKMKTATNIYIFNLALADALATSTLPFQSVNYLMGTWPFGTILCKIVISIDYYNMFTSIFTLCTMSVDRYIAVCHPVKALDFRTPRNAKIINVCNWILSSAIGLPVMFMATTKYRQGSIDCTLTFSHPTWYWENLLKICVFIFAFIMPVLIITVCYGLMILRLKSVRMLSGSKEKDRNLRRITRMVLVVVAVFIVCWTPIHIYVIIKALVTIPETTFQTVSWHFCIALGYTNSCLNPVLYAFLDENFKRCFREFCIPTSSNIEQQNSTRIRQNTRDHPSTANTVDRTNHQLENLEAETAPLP

Insulin-degrading enzyme [7] = target: T2, Insulin-degrading enzyme; experiment: cellular IDE activation of Abeta substrate cleavage – fluorescence polarization, HEK cells, dose response (AID 588439); assay type: functional, cell-based
[8] = target: T3, Apoptotic protease-activating factor 1 (Homo sapiens, UniProt O14727); assay type: functional
T3 sequence (O14727 whole entry): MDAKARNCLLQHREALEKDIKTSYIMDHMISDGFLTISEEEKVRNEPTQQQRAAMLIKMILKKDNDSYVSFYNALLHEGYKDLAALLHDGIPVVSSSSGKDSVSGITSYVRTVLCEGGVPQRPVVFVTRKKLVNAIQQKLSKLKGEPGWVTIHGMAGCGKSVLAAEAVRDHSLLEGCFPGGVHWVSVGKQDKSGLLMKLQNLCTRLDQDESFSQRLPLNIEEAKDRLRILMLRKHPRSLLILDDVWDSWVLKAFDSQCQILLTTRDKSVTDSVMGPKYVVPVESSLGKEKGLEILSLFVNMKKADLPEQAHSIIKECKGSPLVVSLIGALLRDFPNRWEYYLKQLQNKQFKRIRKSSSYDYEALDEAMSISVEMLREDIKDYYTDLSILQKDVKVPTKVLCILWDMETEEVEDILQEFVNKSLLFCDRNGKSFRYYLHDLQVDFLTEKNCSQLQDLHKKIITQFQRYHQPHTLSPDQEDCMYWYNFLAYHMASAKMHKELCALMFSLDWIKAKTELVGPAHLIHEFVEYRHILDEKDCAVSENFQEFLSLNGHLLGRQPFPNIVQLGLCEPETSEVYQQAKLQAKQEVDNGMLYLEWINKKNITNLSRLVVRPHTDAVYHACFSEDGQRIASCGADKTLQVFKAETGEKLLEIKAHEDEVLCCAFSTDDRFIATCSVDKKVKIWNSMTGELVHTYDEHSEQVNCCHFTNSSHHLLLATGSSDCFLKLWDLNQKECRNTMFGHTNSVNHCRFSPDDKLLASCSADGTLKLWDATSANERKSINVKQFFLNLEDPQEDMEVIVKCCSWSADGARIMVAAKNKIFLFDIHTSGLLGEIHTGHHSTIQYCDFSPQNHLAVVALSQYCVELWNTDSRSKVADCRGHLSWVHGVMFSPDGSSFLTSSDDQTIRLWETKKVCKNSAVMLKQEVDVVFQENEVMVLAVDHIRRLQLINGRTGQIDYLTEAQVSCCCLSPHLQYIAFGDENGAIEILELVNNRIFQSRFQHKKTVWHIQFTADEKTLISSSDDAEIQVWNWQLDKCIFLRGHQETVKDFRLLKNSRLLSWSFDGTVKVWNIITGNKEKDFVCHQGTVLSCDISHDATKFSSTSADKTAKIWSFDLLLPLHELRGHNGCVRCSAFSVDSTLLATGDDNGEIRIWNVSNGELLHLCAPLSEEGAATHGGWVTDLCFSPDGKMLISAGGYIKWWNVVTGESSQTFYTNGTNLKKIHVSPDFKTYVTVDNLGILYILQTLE

[9] = target: Intestinal-type alkaline phosphatase (Homo sapiens, UniProt P09923); experiment: inhibition of human intestinal alkaline phosphatase – biochemical, dose response (AID 488876); assay type: functional
Chain of Intestinal-type alkaline phosphatase (Homo sapiens, UniProt P09923) (P09923 whole entry): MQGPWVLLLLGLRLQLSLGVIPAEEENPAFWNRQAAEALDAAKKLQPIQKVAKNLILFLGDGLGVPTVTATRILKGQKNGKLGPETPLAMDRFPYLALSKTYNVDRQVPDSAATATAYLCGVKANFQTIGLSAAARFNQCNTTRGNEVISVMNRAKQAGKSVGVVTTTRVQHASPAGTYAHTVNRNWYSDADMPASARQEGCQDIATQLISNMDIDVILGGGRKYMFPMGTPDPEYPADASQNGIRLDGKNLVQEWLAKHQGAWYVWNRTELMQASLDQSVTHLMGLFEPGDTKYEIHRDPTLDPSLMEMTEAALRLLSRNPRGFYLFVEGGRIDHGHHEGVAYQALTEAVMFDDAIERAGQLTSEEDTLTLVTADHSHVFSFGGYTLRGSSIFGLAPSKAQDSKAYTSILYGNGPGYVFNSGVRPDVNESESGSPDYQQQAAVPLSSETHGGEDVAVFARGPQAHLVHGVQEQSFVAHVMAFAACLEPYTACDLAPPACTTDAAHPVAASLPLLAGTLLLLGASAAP

Clc1ccc(C(c2ccc(Cl)cc2)n2cc[n+](CC(OCc3ccc(Cl)cc3Cl)c3ccc(Cl)cc3Cl)c2)cc1 (stereo not given) [CALMIDAZOLIUM CHLORIDE]
IC50 [1]: 5.6 µM (active)
IC50 [2]: 10.9 µM (active)
EC50 (Insulin-degrading enzyme [3]): > 54.7 µM (inactive)
IC50 [4]: 14.6 µM (active)
EC50 [5]: > 92.5 µM (inactive)
AC50 [6]: 7.07 µM (active)
EC50 (Mu-type opioid receptor): > 92.5 µM (inactive)
EC50 (Insulin-degrading enzyme [7]): > 2.03 µM (active)
IC50 [8]: 12.7 µM (active)
IC50 [9]: > 100 µM (inactive)
